Here are results for one compound from article PMC9697930 (International Journal of Molecular Sciences, 2022).

Structures are written as SMILES. pIC50: −log10 of the molar value.

In one experiment the test system is MCF-7 cells. Nature of the experiment: MTT viability experiment. The settings on record: 0.5 µM, 48 h. It is filed as cell-based, Human. As to the method: (§1) The viability MTT assay was employed in several experimental sets, including induction studies, comparative viability assays, and drug combinations. First, 1.3 × 10^4 (MDCKII sublines), 1.2 × 10^4 (A431 sublines), 1.5 × 10^4 (MCF-7), and 1.0 × 10^4 (primary NSCLC explants) cells were seeded in 96-well plates. After seeding, cells were left to refresh in incubator for 24 h. Secondly, the medium was removed, and the serial dilutions of the drugs or drug combinations were added to the cells. Next to these variants, a medium with 40% DMSO and vehicle-containing media were tested as nonviable and unaffected viability controls, respectively. After an additional 48 h of incubation, the cells were washed with 1 × PBS and then treated with 1 mg/mL MTT solution in Opti-MEM. Subsequently, cells were incubated for 60 min under standard conditions. After MTT treatment, generated formazan crystals were solubilized with DMSO for 10 min. Wavelengths of 570 nm (formazan) and 690 nm (background) were used for absorbance measurements using a microplate reader Infinite 200 Pro NanoQuant (Tecan, Männedorf, Switzerland).

Experiment [1] deals with patient-derived NSCLC explants. Put plainly: Accumulation of mitoxantrone and daunorubicin in ex vivo explants. In kind it is cell-based, human. The settings on record: 5 µM talazoparib, 2 µM Ko143, 25 µM MK571. An excerpt:
NSCLC specimens from lung lobectomies were donated by patients at the Department of Cardiac Surgery, University Hospital Hradec Kralove. All the patients signed the informed consent; its formulation was approved by the University Hospital Ethics Committee (study no. 202002 […]). The NSCLC malignant tissues were excised from lung lobes by the pathologist immediately after the surgery. Then, NSCLC primary explants were generated according to the established protocols. First, the tumor tissues were cut into small pieces by scalpel. Then, the cells were released from the tissue by the 0.1% collagenase in 1 × MEM at 37 °C for 30 min. Subsequently, 1% BSA in MEM (v/v) was added, and cells were filtered through a 40 μm pore-sized cell strainer. The resulting solution was centrifuged at 200 × g for 5 min and the pellet was resuspended in 1% BSA in MEM. The centrifugation (100 × g for 10 min) in Ficoll Paque Plus was used for removing biological impurities such as cell debris, etc. Next, the NSCLC cells were collected and transferred into c-based media. The additional centrifugation (200 × g for 5 min) was applied to remove the traces of Ficoll solution. […] The fluorescence in cells was measured immediately after the collection of their suspensions using flow cytometer Sony SA3800 Spectral Cell Analyzer (Sony Biotechnology, San Jose, CA, USA). […]

A further experiment deals with ABCG2 mRNA. Put plainly: Gene induction study (qRT-PCR) in MCF-7 cells. It is filed as cell-based, Human. The settings on record: 0.5 µM, 24 and 48 h. As to the method:
(§2) Gene expression analyses based on quantitative real-time reverse transcription PCR (qRT-PCR) were performed as described previously. MCF-7 cell line (3.8×10^5 cells/well) was seeded in 12-well plates 24 h before induction experiments. […] After 24 and 48 h intervals, samples were collected by using TRI Reagent. Subsequently, total RNA was isolated from the cells using the chloroform/isopropanol method. Reverse transcription of 1 μg RNA to cDNA was conducted with ProtoScript II Reverse Transcriptase using T100 Thermal Cycler (Bio-Rad Laboratories, Hercules, CA, USA) according to the two-step protocol described previously. The expressions of ABCB1, ABCC1, and ABCG2 genes were measured by qRT-PCR using specific TaqMan assays with QuantStudio 6 machine (Life Technologies, Carlsbad, CA, USA). qRT-PCR reactions were run under predefined thermal cycling conditions (95 °C for 10 min, then 40 repeats of a cycle of 95 °C for 15 s and 60 °C for 60 s). GAPDH and B2M were used as house-keeping genes; the fold-changes in target genes’ expressions were determined according to the 2^-ΔΔCt method.
(Quantitative PCR measures a nucleic acid by following its amplification.)

Another experiment has as its system ABCC1 mRNA. Nature of the experiment: Gene induction study (qRT-PCR) in MCF-7 cells. In kind it is cell-based, Human. The settings on record: 0.5 µM, 24 and 48 h. As to the method: as §2
The subject of another experiment is ABCB1 mRNA. Put plainly: Gene induction study (qRT-PCR) in MCF-7 cells. In kind it is cell-based, Human. The settings on record: 0.5 µM, 24 and 48 h. Here is the method: as §2
The test system of a further experiment is A431-ABCB1. Put plainly: MTT proliferation assay. In kind it is cell-based. The settings on record: Homo sapiens, comparative MTT, 48 h, read-out: antiproliferative IC50. Here is the method:
as §1
For orientation: Tetrazolium assays rely on reduction of a dye to a coloured formazan, in cell work by metabolically active cells.

For the compound `Cn1ncnc1[C@H]1c2n[nH]c(=O)c3cc(F)cc(c23)N[C@@H]1c1ccc(F)cc1` [talazoparib, Talazoparib], the “toxicity in MTT viability experiment” value with MCF-7 cells is given as “negligibly toxic”. The figures for the “effect on cytostatic efflux / accumulation” value in experiment [1] (primary cultures with high expression of ABCG2/ABCC1) and in experiment [1] (primary cultures with low expression of ABCG2/ABCC1) were “significantly inhibited cytostatic efflux” and “insignificant accumulation changes”, respectively. Moreover, in the experiment on ABCG2 mRNA, the “change of ABCG2 mRNA expression vs vehicle control” value is reported as “did not trigger the transporters’ expression increase or decrease by more than 100% or 50%”. Moreover, in the experiment with ABCC1 mRNA, the “change of ABCC1 mRNA expression vs vehicle control” value was “did not trigger the transporters’ expression increase or decrease by more than 100% or 50%”. Moreover, the “change of ABCB1 mRNA expression vs vehicle control” value in the experiment with ABCB1 mRNA was “did not trigger the transporters’ expression increase or decrease by more than 100% or 50%”. For the same compound, in the experiment on A431-ABCB1, the pIC50 (usually −log10 of the IC50, conventionally taken in molar units) was 4.03.
